We go through 17 compounds from ChEMBL document CHEMBL1133187, “Novel antiarthritic agents with 1,2-isothiazolidine-1,1-dioxide (gamma-sultam) skeleton: cytokine suppressive dual inhibitors of cyclooxygenase-2 and 5-lipoxygenase” (J Med Chem, 2000).

For test [1], the species on record is Rattus norvegicus. In words: In vitro inhibitory effect on production of, calcium ionophore (A23187) -induced Leukotriene B4 (LTB4) in rat peritoneal cells. It counts as functional, cell-based.
Test [2] concerns THP-1. In words: In vitro inhibitory effect on production of, lipopolysaccharide (LPS) -induced IL1-beta in human THP-1 cells. It counts as functional, cell-based.
The species named for test [3] is Rattus norvegicus. Kind of test: In vitro inhibitory effect on production of, Prostaglandin E2 (PGE2) in rat synovial cells. It counts as functional.
For test [4], the species on record is Rattus norvegicus. In words: In vitro effect on production of calcium ionophore (A23187) -induced Leukotriene B4 (LTB4) in rat peritoneal cells. It counts as functional, cell-based.
In test [5] the target is T1, Cyclooxygenase (Rattus norvegicus, UniProt P35355+Q63921).
T1 sequence (P35355 whole entry): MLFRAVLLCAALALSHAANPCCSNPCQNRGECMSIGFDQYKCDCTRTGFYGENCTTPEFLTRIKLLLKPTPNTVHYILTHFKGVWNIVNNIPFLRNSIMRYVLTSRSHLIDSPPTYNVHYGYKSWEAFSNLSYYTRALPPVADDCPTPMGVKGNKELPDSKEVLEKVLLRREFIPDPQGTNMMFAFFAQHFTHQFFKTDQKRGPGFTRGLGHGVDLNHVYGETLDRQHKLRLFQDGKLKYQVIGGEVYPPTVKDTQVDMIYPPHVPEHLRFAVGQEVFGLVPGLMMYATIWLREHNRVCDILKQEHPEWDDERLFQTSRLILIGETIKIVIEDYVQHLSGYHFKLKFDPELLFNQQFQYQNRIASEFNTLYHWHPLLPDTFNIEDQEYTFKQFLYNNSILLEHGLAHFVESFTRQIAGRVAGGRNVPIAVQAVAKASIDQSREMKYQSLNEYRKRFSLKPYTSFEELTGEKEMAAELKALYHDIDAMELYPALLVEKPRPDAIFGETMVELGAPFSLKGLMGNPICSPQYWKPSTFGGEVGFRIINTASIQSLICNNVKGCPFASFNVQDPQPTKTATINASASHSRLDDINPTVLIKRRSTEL
T1 sequence (Q63921 whole entry): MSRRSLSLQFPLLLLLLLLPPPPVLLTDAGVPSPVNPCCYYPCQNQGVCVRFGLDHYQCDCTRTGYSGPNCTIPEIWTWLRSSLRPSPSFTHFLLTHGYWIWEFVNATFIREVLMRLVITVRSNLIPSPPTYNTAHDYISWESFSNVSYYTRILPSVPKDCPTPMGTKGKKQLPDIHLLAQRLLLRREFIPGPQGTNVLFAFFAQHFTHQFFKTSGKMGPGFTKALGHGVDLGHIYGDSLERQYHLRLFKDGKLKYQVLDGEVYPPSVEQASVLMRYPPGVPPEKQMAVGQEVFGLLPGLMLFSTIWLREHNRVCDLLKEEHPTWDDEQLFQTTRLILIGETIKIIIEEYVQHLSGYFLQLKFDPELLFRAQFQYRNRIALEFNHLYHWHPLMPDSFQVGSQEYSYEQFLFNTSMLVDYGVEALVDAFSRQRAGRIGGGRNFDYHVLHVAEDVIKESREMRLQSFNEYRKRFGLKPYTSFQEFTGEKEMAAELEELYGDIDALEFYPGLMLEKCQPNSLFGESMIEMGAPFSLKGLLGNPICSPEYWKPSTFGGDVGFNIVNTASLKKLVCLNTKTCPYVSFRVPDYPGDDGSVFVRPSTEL
Description: In vitro inhibitory effect on production of prostaglandin E2 (PGE2) in rat synovial cells.

Test [6] has as its system THP-1. In words: In vitro effect on production of lipopolysaccharide (LPS) -induced IL1-beta in human THP-1 cells. It counts as functional, cell-based.
In test [7] the test system is Rattus norvegicus. In words: Percent inhibition of carrageenan-induced foot-pad edema at 30 mg/kg po. It counts as functional.
The test system of test [8] is Rattus norvegicus. Kind of test: Percent inhibition of adjuvant-induced arthritis at 10 mg/kg po. It counts as functional.
Test [9] is filed under the species Rattus norvegicus. In words: Inhibitory effect for increase in plasma prostaglandin E2 (PGE2) level after arachidonic acid (AA) injection into COX-2 lipopolysaccharide-treated rats. It counts as functional.
For test [10], the species on record is Rattus norvegicus. In words: Inhibitory effect for increase in plasma prostaglandin E2 (PGE2) level after arachidonic acid (AA) injection into, COX-1 non-lipopolysaccharide-treated rats. It counts as functional.
Test [11] is filed under the species Homo sapiens. In words: Inhibitory effect on production of (COX-1) thromboxane B2 (TXB2) in human platelet cells. It counts as functional, cell-based.
Test [12] in a line: Inhibitory effect on production of (COX-2) prostaglandin E2 (PGE2) in human IL1-beta stimulated synovial cells. It counts as functional.
The species named for test [13] is Rattus norvegicus.
Description: Lengths of bleeding ulcer of drug-administered group
The test system of test [14] is Rattus norvegicus. In words: Dose required for 30% inhibition of carrageenan-induced edema. It counts as functional. For orientation: In the carrageenan paw model, swelling and tenderness develop within hours.
For test [15], the species on record is Rattus norvegicus. Kind of test: Dose required for 30% inhibition of adjuvant-induced arthritis. It counts as functional.
The species named for test [16] is Rattus norvegicus. In words: Dose required for Ulcerogenic effect. It counts as functional.
The species named for test [17] is Rattus norvegicus. Kind of test: Inhibitory effect for increase in plasma prostaglandin E2 (PGE2) level after arachidonic acid (AA) injection into COX-1 non-lipopolysaccharide-treated rats. It counts as functional.

What is called IC50 is the point on the concentration scale where inhibition reaches its midpoint. The term inhibition in vivo denotes how much of the control response was suppressed. Usually ED50 stands for the dose at which the effect has come halfway, by size or by number of responders. A high value points to weaker potency.

Regarding `CCN1CC/C(=C\c2cc(C)c(O)c(C)c2)S1(=O)=O`, the IC50 in test [1] is 21 µM; in test [2], more than 100 µM; in [3], more than 1 µM.
Regarding `CC(C)(C)c1cc(/C=C2\CCN(c3ccc(Cl)cc3)S2(=O)=O)cc(C(C)(C)C)c1O`, the half-inhibitory concentration (IC50) in test [4] is 21 µM; in [5], less than 0.001 µM; in test [6], more than 100 µM. The same compound returned an inhibition in vivo at 30 mg/kg in test [7] of 6.3%.
In the case of `CC(C)(C)c1cc(/C=C2\CCN(CCO)S2(=O)=O)cc(C(C)(C)C)c1O`, in test [5], the IC50 stood at 0.24 µM.
Same read-out and setting: for `CC(C)(C)c1cc(/C=C2\CCN(c3ccncc3)S2(=O)=O)cc(C(C)(C)C)c1O` the value was 0.41 µM; for `CC(C)(C)c1cc(/C=C2/CCN(O)S2(=O)=O)cc(C(C)(C)C)c1O`, 0.7 µM.
In the case of `CCCN1CC/C(=C\c2cc(C(C)(C)C)c(O)c(C(C)(C)C)c2)S1(=O)=O`, the results for the IC50 in test [4], in test [5] and in [6] were 1.9 µM, 0.013 µM and 19 µM, respectively. For the same compound, in test [8], the inhibition in vivo at 10 mg/kg came out at 11.4%. Besides, in [7], at 30 mg/kg the inhibition in vivo was 0.3%.
For the compound `CCCN1CC/C(=C/c2cc(C(C)(C)C)c(O)c(C(C)(C)C)c2)S1(=O)=O`, the IC50 in test [4] was 0.8 µM; in [5], 0.012 µM; in test [6] it was 23 µM. Further, in test [7], at 30 mg/kg the inhibition in vivo was 11.2%.
On to `CN(C)CCN1CC/C(=C\c2cc(C(C)(C)C)c(O)c(C(C)(C)C)c2)S1(=O)=O`, for which the half-inhibitory concentration (IC50) in [5] was found to be 0.34 µM.
With `CON1CC/C(=C/c2cc(C(C)(C)C)c(O)c(C(C)(C)C)c2)S1(=O)=O`, the IC50 in test [4] is 1.5 µM; in [5], 0.0025 µM; in test [6], 20 µM. The inhibition in vivo at 10 mg/kg in test [8] was determined as 5%. This compound displayed an inhibition in vivo at 30 mg/kg in test [7] of 6%.
The matching figures for `CC(C)(C)c1cc(/C=C2\CCNS2(=O)=O)cc(C(C)(C)C)c1O`: more than 100 µM, 0.03 µM, more than 100 µM, 8.8% and 17.2%.
In [5], `CC(C)(C)c1cc(/C=C2\CCN(c3cccnc3)S2(=O)=O)cc(C(C)(C)C)c1O` returned an IC50 of 0.32 µM.
As for `CC(C)(C)c1cc(/C=C2\CCCNS2(=O)=O)cc(C(C)(C)C)c1O`, the IC50 worked out at 74 µM in test [4], 0.0062 µM in test [5] and 56 µM in test [6]. The inhibition in vivo at 30 mg/kg in test [7] came to 14.7%.
In the same order, the values of `CC(=O)N1CC/C(=C\c2cc(C(C)(C)C)c(O)c(C(C)(C)C)c2)S1(=O)=O` are 4.9 µM, less than 0.001 µM, 28 µM and 21%.
With `CN1CC/C(=C/c2cc(C(C)(C)C)c(O)c(C(C)(C)C)c2)S1(=O)=O`, the IC50 in [4] is 1.8 µM; in test [5] it was less than 0.001 µM; in test [6] it was 29 µM. This compound also displayed an inhibition in vivo at 30 mg/kg in [7] of 25.2%.
On to `CC(C)(C)c1cc(/C=C2\CCN(C(=O)NO)S2(=O)=O)cc(C(C)(C)C)c1O`, for which the IC50 in test [4] worked out at 6 µM; in test [5], 0.024 µM; in test [6], 20 µM. This compound also displayed an inhibition in vivo at 30 mg/kg in test [7] of 14.9%.
Turning to `CS(=O)(=O)Nc1ccc([N+](=O)[O-])cc1OC1CCCCC1` [NS-398], the ED50 in test [9] was 1 mg/kg; in [10] it was more than 30 mg/kg. Further, the half-inhibitory concentration (IC50) is 6.8 µM in test [11] and 0.0019 µM in test [12].
Take `NC(=O)N1C(=O)/C(=C(\O)c2cccs2)c2cc(Cl)ccc21` [TENIDAP]: the results for the IC50 in test [4], in test [5] and in [6] were 45 µM, 0.053 µM and 16 µM, respectively. For the same compound, the ED50 was 0.05 mg/kg in test [9] and 0.025 mg/kg in [17]. The compound further registered a Ulcer index in test [13] of 12.9 mm. For the same compound, the ED30 in test [14] turned out to be 4 mg/kg; in test [15] it was 1 mg/kg. Moreover, in test [16], the Dose came out at 30 mg/kg.
